Assay [1] concerns B2m^−/− B16-F10 melanoma cells. Put plainly: Subcutaneous (S.C.) B2m−/− B16 melanoma model. Type of assay: in vivo, mice. The note with it: for proportions of tumor infiltrating Tregs, macrophages and MDSCs: B2m−/− B16 melanoma at the endpoint; for NK cell infiltration of the tumor parenchyma: B2m−/− B16 melanoma, day 3 post-S.C. injection; for T cell recruitment into the B2m−/− B16 tumors: CD3+ T cells, day 3 post S.C. injection; for IFNγ expression of tumor NK cells / PD-1 expression of tumor NK cells / granzyme B expression of tumor NK cells: NK cells from B2m−/− B16 melanoma, day 19-21 post-S.C. injection; for survival / B2m−/− melanoma growth in the skin: S.C. B2m−/− B16 in WT mice, losartan 60 mg/kg or DHB 40 mg/kg I.P. every day; for B2m−/− melanoma growth in the skin: control IgG vs anti-NK1.1. The method, then:
All tumor experiments were performed in eight to twelve-week-old C57BL/6 female WT or Ncr1^iCre ROSA^mT-mG mice. For the S.C. tumor model, 2.5×10^5 B16-F10 WT or B2m^−/− cells were subcutaneously injected into the shaved flanks of mice. Tumor growth was measured every other day using a digital caliper starting from day seven. Tumor volume was calculated as follows: […]
To inhibit collagen deposition in and around the tumor, mice were administered with 60 mg/kg of Losartan Potassium (Fisher Scientific, catalog no. L02325G) or 40 mg/kg of 3,4-dihydroxybenzoic acid (DHB) (Sigma-Aldrich, catalog no. 37580) in 100 μL of sterile 1×PBS while the control mice were administered with the equivalent volume of sterile 1×PBS. These drugs were injected I.P. every day for the duration of the study starting the day of tumor inoculation.
For the collagenase/hyaluronidase experiment, 2.5×10^5 B16-F10 B2m^−/− cells were resuspended in 1×collagenase and hyaluronidase mix (Stemcell, catalog no. 07912) and were subcutaneously injected into the shaved flanks of mice. To deplete collagen within the tumor, mice were administered with 1×collagenase and hyaluronidase mix (Stemcell, catalog no. 07912) in 100 μL of sterile 1×PBS while control mice were administered with the equivalent volume of sterile 1×sPBS. These enzymes were injected via intratumoral (I.T.) route starting on the day of tumor inoculation (day 0), day 1, day 2, day 3, day 4 and then every other day (day 6, 8, 10, etc.) until the end of the study. Except for day 3 tumor harvest, mice were euthanized when a tumor reached 2 cm in diameter in accordance with IACUC protocols. For early time point tumor analysis, specific Ncr1^iCre, ROSA^mT-mG mice from PBS, Losartan and DHB group were euthanized on day 3 post tumor inoculation, the implanted tumor harvested and fixed in pre-chilled 95% ethanol overnight at 4° C. before subjecting them to subsequent processing.
Terminal subcutaneous tumors were excised with the skin and weighed before cutting in half. One half was placed in appropriate fixative while the other half was separated from the skin and chopped with scissors into ˜1 mm pieces. These were transferred to a 15 mL tube with 10 mL digest buffer (RPMI 1640 (Life Technologies, catalog no. 21870076), 200 U/mL Collagenase IV (Worthington Biochemical, Lakewood, NJ, USA)) and incubated for 2 hours at 37° C. with shaking. Following incubation, digested tumor was poured onto a […] strainer placed in a 50 mL tube. The 15 mL tube was rinsed with ˜3 mL of 1×PBS/2% FCS/5 mM EDTA and added to the digested sample. The tumor was mashed with a plunger through the […] strainer which was then rinsed ˜3 times with a small volume of 1×PBS/2% FCS/5 mM EDTA. The tumor-infiltrating CD45^+ immune cells were isolated by magnetic-based positive selection using CD45 microbeads (Miltenyi Biotec, catalog no. 130-052-301) according to the manufacturer's protocol. The stained cells were passed through the LS columns (Miltenyi Biotec, catalog no. 130-042-401) placed between magnets for isolation of immune cells. The isolated CD45^+ cells were centrifuged at 300 g for 5 minutes at 4° C. and resuspended in 2.4G2 blocking solution before flow cytometry staining.
Mice were I.P. injected with 500 μg/mouse of IgG isotype control (Southern Biotech, Birmingham, AL, USA, catalog no. 0107-01) or depleting anti-NK1.1 antibody (clone PK136, BioXcell, West Lebanon, NH, USA, catalog no. BE0036) two days before tumor cell injection and 250 μg/mouse every other day starting the day of the tumor cell injection. For depletion of NK or T cells (anti-CD4 antibody, clone GK1.5, BioXcell; anti-CD8a antibody, clone YTS 169.4, BioXcell) in a skin transplant setting, 500 μg/mouse of each depleting antibody were injected the day of the transplant and 250 μg at days indicated in FIG. S5E. […]

The subject of assay [2] is Ly49H^+ splenic cNK cells. Put plainly: Splenic cNK cell co-culture with m157-MEF in the presence of ECM proteins (CD107a, IFNγ flow cytometry). In kind it is cell-based, mice. The note with it: for altering NK cell functions (CD107a, IFNγ): co-culture with m157-MEF. The method, then: (§1) Single-cell suspensions from all samples were prepared by straining through a 70 μm filter. 2.4G2 supernatant treated cells were stained in 1×PBS/2% FCS/5 mM EDTA with the appropriate surface antibodies (Table 2) for 30 minutes at 4° C., washed and analyzed by flow cytometry. For intracellular staining, cells were fixed and permeabilized using True-Nuclear Transcription Buffer set (Biolegend, catalog no. 424401) according to the manufacturer's protocol then incubated with appropriate antibodies (Table 2) for 60 min at RT, washed and analyzed by flow cytometry. For in vitro signaling experiments, following the specified time points, cells were fixed with an equal volume of pre-warmed 1×aldehyde based fixation buffer (Biolegend, catalog no. 420801) for 20 min at RT. Fixed cells were permeabilized by drop-wise addition of chilled methanol-based solution True-Phos Perm Buffer (Biolegend, catalog no. 425401) while mixed on a vortex. Cells were stored in-20° C. and dark for 1-3 days before washing them two times with ˜3 mL of 1×PBS/2% FCS/5 mM EDTA. Cells were subsequently stained with appropriate antibodies against surface markers and specific phosphorylated signaling proteins (Table 2) for 60 min at RT, washed and analyzed by flow cytometry. Cells were assayed on a BD LSRFortessa X-20 flow cytometer (BD Bioscience, Billerica, MA, USA) and data were analyzed using FlowJo software Version 10 (Tree Star, Ashlad, OR, USA). NK cells in WT non-reporting mice were identified as CD3^− NK1.1^+NKp46^+.
(§2) For in vitro experiments in the presence of ECM components, Collagen I (Rat tail, Sigma, catalog no. 08-115), collagen III (Human placenta, Sigma, catalog no. C4407), collagen IV (Mouse, Sigma, catalog no. C0543), Elastin (Mouse lung, Sigma, catalog no. E6402), Laminin (Mouse, Thermo Fisher, catalog no. 23017015) and Fibronectin (Rat plasma, Sigma, catalog no. F0635) were diluted in 1×PBS and coated at 20 μ ENREF 45 g/cm^2 in a 24 well tissue culture plate for 30 minutes at RT with gentle shaking followed by overnight at 4° C. Spleens from Ncr1^iCre, ROSA^mT-mG, WT or Lair1^−/− mice were harvested as described above. Then, 5×10^6 splenocytes resuspended in RPMI 10% FBS/1% P/S/20 mM Glutamine were mixed with 20 μg of respective ECM protein per well and were incubated at RT for 10 minutes. Splenocytes and ECM mix were plated onto the ECM-coated well and were incubated at 37° C./5% CO2 for 2 hours (short ECM exposure) or 17 hours (long ECM exposure). At the end of the incubation, 1×10^5 MEF (WT or m157) cells were added to each well to obtain a 50:1 splenocyte:MEF ratio. For cell signaling experiments, hydrogen peroxide (H2O2) at a final concentration of 2.5 mM or 1×10^5 MEF-m157 cells were added to each well except in “0 min” wells which were unstimulated and fixed immediately. Splenocytes were stimulated with 2.5 mM H2O2 for 2 min and 5 min or were co-cultured with MEF-m157 for 30 min and 60 min (signaling) or 7 hours (CD107a and IFN[…]) at 37° C./5% CO2. Splenocytes and MEF in co-culture were supplemented with mIL-12 (10 ng/mL, Biolegend, catalog no. 577002), mIL-15 (1 ng/mL, Shenandoah Biotechnology, catalog no. 200-07) and hIL-2 (Biolegend, catalog no. 589104; only long ECM exposure) as well as for CD107a/IFN experiments. 1 μL of anti-CD107a-BV421 (1D4B, Biolegend, catalog no. 121618), 1×Brefeldin A (Biolegend, catalog no. 420601) and 1×Monensin (Biolegend, catalog no. 420701) were added. Following the co-culture, cells were washed with 1×PBS/2% FCS/5 mM EDTA and the pellet was resuspended in 2.4G2 blocking solution before flow cytometry staining.

Another assay deals with splenic cNK cells. As to the kind of experiment: Phospho-signaling in splenic cNK cells stimulated with H2O2 in the presence of ECM proteins. In kind it is cell-based, mice. The procedure:
as §1, §2

As for `O=C(O)c1ccc(O)c(O)c1` [DHB, 3,4-dihydroxybenzoic acid], in assay [1], the “proportions of tumor infiltrating Tregs, macrophages and MDSCs” value was “remained unaltered or increased”; the “NK cell infiltration of the tumor parenchyma” value is “highly infiltrated the tumor parenchyma”; the “T cell recruitment into the B2m−/− B16 tumors” value is listed as “did not induce T cell recruitment”; the “IFNγ expression of tumor NK cells” value is listed as “markedly elevated expression”. In addition, in assay [1], the “PD-1 expression of tumor NK cells” value was “markedly elevated expression”, the “granzyme B expression of tumor NK cells” value is listed as “markedly elevated expression”, the survival result is recorded as “significant survival benefit” and the “B2m−/− melanoma growth in the skin” value is “protected the mice from B2m^−/− melanoma growth in the skin in an NK cell-dependent manner”.

With `CCCCc1nc(Cl)c(CO)n1Cc1ccc(-c2ccccc2-c2nn[nH]n2)cc1` [losartan, Losartan Potassium], in assay [1], the “proportions of tumor infiltrating Tregs, macrophages and MDSCs” value is “remained unaltered or increased”; the “NK cell infiltration of the tumor parenchyma” value was “highly infiltrated the tumor parenchyma”; the “T cell recruitment into the B2m−/− B16 tumors” value was “did not induce T cell recruitment”; the “IFNγ expression of tumor NK cells” value is recorded as “markedly elevated expression”. Besides, in assay [1], the “PD-1 expression of tumor NK cells” value is on record as “markedly elevated expression”, the “granzyme B expression of tumor NK cells” value was “markedly elevated expression”, the survival entry is on record as “significant survival benefit” and the “B2m−/− melanoma growth in the skin” value is “protected the mice from B2m^−/− melanoma growth in the skin in an NK cell-dependent manner”.

With “collagen IV: collagen IV (Mouse, Sigma), epidermal basement membrane protein”, the “altering NK cell functions (CD107a, IFNγ)” value (from here on “altering NK cell functions”) in assay [2] (9 and 24 hours) is “played a minor role”.

“fibronectin: Fibronectin (Rat plasma, Sigma), epidermal basement membrane protein”: in assay [2] (9 and 24 hours), the “altering NK cell functions” value is “played a minor role”.

Take “laminin: Laminin (Mouse, Thermo Fisher), epidermal basement membrane protein”: in assay [2] (9 and 24 hours), the “altering NK cell functions” value is given as “played a minor role”.

B1: elastin: Elastin (Mouse lung, Sigma), dermal ECM protein (protein, UniProt P54320 28-860, looked up)
Elastin: GGVPGAVPGGLPGGVPGGVYYPGAGIGGLGGGGGALGPGGKPPKPGAGLLGTFGAGPGGLGGAGPGAGLGAFPAGTFPGAGALVPGGAAGAAAAYKAAAKAGAGLGGVGGVPGGVGVGGVPGGVGVGGVPGGVGVGGVPGGVGGIGGIGGLGVSTGAVVPQVGAGIGAGGKPGKVPGVGLPGVYPGGVLPGTGARFPGVGVLPGVPTGTGVKAKAPGGGGAFAGIPGVGPFGGQQPGVPLGYPIKAPKLPGGYGLPYTNGKLPYGVAGAGGKAGYPTGTGVGSQAAAAAAKAAKYGAGGAGVLPGVGGGGIPGGAGAIPGIGGIAGAGTPAAAAAAKAAAKAAKYGAAGGLVPGGPGVRLPGAGIPGVGGIPGVGGIPGVGGPGIGGPGIVGGPGAVSPAAAAKAAAKAAKYGARGGVGIPTYGVGAGGFPGYGVGAGAGLGGASPAAAAAAAKAAKYGAGGAGALGGLVPGAVPGALPGAVPAVPGAGGVPGAGTPAAAAAAAAAKAAAKAGLGPGVGGVPGGVGVGGIPGGVGVGGVPGGVGPGGVTGIGAGPGGLGGAGSPAAAKSAAKAAAKAQYRAAAGLGAGVPGFGAGAGVPGFGAGAGVPGFGAGAGVPGFGAGAGVPGFGAGAVPGSLAASKAAKYGAAGGLGGPGGLGGPGGLGGPGGLGGAGVPGRVAGAAPPAAAAAAAKAAAKAAQYGLGGAGGLGAGGLGAGGLGAGGLGAGGLGAGGLGAGGLGAGGLGAGGGVSPAAAAKAAKYGAAGLGGVLGARPFPGGGVAARPGFGLSPIYPGGGAGGLGVGGKPPKPYGGALGALGYQGGGCFGKSCGRKRK
On to B1, for which the “Ly49H+ cNK cell degranulation (CD107a)” value in assay [2] (9 and 24 hours co-culture with m157-MEF, ECM coated 20 μg/cm2) is recorded as “potently blocked”. Moreover, the “IFNγ production by Ly49H+ cNK cells” value in assay [2] (exposed to m157-MEF, 9 and 24 hours) is “suppressed”. In addition, in the assay with splenic cNK cells (H2O2 2.5 mM, 2 and 5 min), the “pERK1/2 levels in NK cells” value is “markedly reduced” and the “pPLCγ1 levels in NK cells” value was “markedly reduced”. Also, the “pSTAT3 in NK cells” value in the assay on splenic cNK cells (baseline and 2- and 5-minute exposure to H2O2) is “increased pSTAT3 at baseline”. The “pSTAT5 in NK cells” value with splenic cNK cells (baseline and 2- and 5-minutes exposure to H2O2) was “highly induced”.
